27 compounds from US9481670B2, “Triazine compounds” (Sphaera Pharma PTE. Ltd., priority 2011, dated 2016) can be followed below.

Structures are written as SMILES. pIC50: −log10 of the molar value.

The target in this assay is T1, PI3K alpha (Homo sapiens, UniProt P42336).
T1 construct: purchased Millipore Upstate
T1 sequence (P42336 whole entry): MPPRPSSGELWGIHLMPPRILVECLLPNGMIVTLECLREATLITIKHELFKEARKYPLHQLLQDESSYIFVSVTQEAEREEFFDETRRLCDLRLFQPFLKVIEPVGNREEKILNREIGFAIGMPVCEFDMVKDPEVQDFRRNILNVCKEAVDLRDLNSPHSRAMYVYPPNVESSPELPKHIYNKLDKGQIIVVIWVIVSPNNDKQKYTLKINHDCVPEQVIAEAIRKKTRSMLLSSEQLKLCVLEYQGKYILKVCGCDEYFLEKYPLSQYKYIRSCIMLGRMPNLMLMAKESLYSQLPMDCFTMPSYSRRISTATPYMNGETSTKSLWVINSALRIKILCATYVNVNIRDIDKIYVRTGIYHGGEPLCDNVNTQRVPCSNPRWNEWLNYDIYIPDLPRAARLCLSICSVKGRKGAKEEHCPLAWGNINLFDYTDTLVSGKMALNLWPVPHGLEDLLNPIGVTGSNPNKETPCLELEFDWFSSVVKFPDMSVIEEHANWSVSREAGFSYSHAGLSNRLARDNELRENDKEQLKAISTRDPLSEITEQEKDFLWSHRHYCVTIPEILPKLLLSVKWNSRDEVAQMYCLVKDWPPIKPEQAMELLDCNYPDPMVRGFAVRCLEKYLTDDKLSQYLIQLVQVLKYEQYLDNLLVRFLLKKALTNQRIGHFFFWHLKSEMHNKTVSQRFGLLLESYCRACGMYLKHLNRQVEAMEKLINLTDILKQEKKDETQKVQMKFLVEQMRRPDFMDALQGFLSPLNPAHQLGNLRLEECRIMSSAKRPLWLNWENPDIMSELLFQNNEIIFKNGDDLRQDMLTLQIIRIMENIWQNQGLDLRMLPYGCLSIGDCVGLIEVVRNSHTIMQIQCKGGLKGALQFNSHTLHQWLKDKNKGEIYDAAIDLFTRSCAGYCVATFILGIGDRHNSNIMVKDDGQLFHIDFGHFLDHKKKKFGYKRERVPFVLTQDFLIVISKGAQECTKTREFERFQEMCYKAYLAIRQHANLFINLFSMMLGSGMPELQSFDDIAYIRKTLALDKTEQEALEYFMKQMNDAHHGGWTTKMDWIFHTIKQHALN
T1 sequence (P27986 whole entry partner): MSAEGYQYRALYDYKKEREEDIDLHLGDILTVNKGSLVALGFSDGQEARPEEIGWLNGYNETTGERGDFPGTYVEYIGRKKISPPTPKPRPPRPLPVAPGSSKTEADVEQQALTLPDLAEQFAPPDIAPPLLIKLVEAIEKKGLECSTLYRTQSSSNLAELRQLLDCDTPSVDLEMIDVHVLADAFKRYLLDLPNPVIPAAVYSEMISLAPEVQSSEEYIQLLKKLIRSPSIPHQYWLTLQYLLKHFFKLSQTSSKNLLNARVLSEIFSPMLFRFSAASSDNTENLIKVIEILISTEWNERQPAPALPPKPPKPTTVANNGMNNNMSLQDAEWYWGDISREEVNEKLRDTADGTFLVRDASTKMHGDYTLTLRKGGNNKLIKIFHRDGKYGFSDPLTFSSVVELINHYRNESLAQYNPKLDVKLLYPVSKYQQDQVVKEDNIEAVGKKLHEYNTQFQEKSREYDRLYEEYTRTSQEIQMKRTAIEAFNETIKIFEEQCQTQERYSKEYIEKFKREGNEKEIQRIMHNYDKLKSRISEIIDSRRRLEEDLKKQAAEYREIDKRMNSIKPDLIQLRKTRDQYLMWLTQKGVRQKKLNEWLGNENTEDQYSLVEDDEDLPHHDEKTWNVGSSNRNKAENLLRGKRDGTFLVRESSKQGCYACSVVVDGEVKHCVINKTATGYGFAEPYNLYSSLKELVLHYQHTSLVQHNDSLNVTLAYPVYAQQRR
Briefly: P110 Alpha TR-FRET Assay (PI3K alpha kinase assay, HTRF Transcreener ADP Assay). The following applies: PI3K (WT). The assay is classed as biochemical. The method, boiled down: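 HTRF Transcreener ADP read-out of ADP formed by PI3K (50 ng enzyme) in 50 mM HEPES pH 7.5, 5 mM MgCl2, 1 mM DTT, 30 μM Na3VO4. Compound preincubated with enzyme 20 min; reaction started with 10 μM ATP and 5 μM PIP2, run 20 min, then ADP-d2/anti-ADP cryptate detection for 1 h.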
Usually pIC50 stands for the IC50 on a negative log10 scale, so that one unit is a factor of ten. With `CC(Nc1nc(-c2cccc(NS(C)(=O)=O)c2)nc(N2CCOCC2)n1)C(=O)O` (stereo not drawn) [Compound 1138, 2-((4-(3-(methylsulfonamido)phenyl)-6-morpholino-1,3,5-triazin-2-yl)amino)propanoic acid], the negative-log IC50 (pIC50) was less than 5.30.

`Nc1nc(-c2cccc(O)c2)nc(N2CCOCC2)n1` [Compound 1139, 3-8-[4-3-amino-6-5-(morpholin-4-yl)-1,3,5-triazin-2-yl]phenol] showed a negative-log IC50 (pIC50) greater than 5.30.

For `COC1CCN(C(=O)c2cccc(Nc3nc(-c4cccc5[nH]ncc45)nc(N4CCOCC4)n3)c2)CC1` [Compound 1140, (3-((4-(1H-indazol-4-yl)-6-morpholino-1,3,5-triazin-2-yl)amino)phenyl)(4-methoxypiperidin-1-yl)methanone], the pIC50 is greater than 5.30.

`CN(C)C(=O)CNc1nc(-c2cccc(C#N)c2)nc(N2CCOCC2)n1` [Compound 1141, 2-((4-(3-cyanophenyl)-6-morpholino-1,3,5-triazin-2-yl)amino)-N,N-dimethylacetamide] gave a pIC50 of less than 5.30.

`CNC(=O)[C@H]1CC[C@H](Oc2nc(-c3cccc4[nH]ncc34)nc(N3CCOCC3)n2)CC1` [Compound 1142, (1r,4r)-4-21-{[4-1-(1H-indazol-4-yl)-6-5-(morpholin-4-yl)-1,3,5-triazin-2-yl]oxy}-N-methylcyclohexane-1-carboxamide]: the negative-log IC50 (pIC50) is greater than 5.30.

`CN(C)C(=O)[C@H]1CC[C@@H](Oc2nc(-c3cccc4[nH]ncc34)nc(N3CCOCC3)n2)CC1` [Compound 1143, (1s,4s)-4-21-{[4-1-(1H-indazol-4-yl)-6-5-(morpholin-4-yl)-1,3,5-triazin-2-yl]oxy}-N,N-dimethylcyclohexane-1-carboxamide] had a pIC50 greater than 5.30.

Consider `CN(C)C(=O)CNc1nc(-c2ccc(O)nc2)nc(N2CCOCC2)n1` [Compound 1145, 2-((4-(6-hydroxypyridin-3-yl)-6-morpholino-1,3,5-triazin-2-yl)amino)-N,N-dimethylacetamide], for which the pIC50 was greater than 5.30.

For `CS(=O)(=O)Nc1cccc(-c2nc(NCC(=O)O)nc(N3CCOCC3)n2)c1` [Compound 1146, 2-((4-(3-(methylsulfonamido)phenyl)-6-morpholino-1,3,5-triazin-2-yl)amino)acetic acid], the negative logarithm of the IC50 (pIC50) was less than 5.30.

`CN(C)C(=O)NC(C)(C)COc1nc(-c2cccc3[nH]ncc23)nc(N2CCOCC2)n1` [Compound 1147, 1-(1-14-{[4-1-(1H-indazol-4-yl)-6-5-(morpholin-4-yl)-1,3,5-triazin-2-yl]oxy}-2-15-methylpropan-2-yl)-3,3-dimethylurea] had a pIC50 greater than 5.30.

In turn, `CCN1CCC(Oc2nc(-c3cccc4[nH]ncc34)nc(N3CCOCC3)n2)CC1` [Compound 1149, 4-7-{4-3-[(1-25-ethylpiperidin-4-yl)oxy]-6-5-(morpholin-4-yl)-1,3,5-triazin-2-yl}-1H-indazole] showed a pIC50 greater than 5.30.

`CN(C)C(=O)CNc1nc(-c2cncc(O)c2)nc(N2CCOCC2)n1` [Compound 1150, 2-((4-(5-hydroxypyridin-3-yl)-6-morpholino-1,3,5-triazin-2-yl)amino)-N,N-dimethylacetamide] had a negative logarithm of the IC50 (pIC50) greater than 5.30.

`c1cc(-c2nc(OC3CCNCC3)nc(N3CCOCC3)n2)c2cn[nH]c2c1` [Compound 1151, 4-7-[4-5-(morpholin-4-yl)-6-3-(piperidin-4-yloxy)-1,3,5-triazin-2-yl]-1H-indazole] showed a negative logarithm of the IC50 (pIC50) greater than 5.30.

`N[C@H]1CC[C@H](Oc2nc(-c3cccc4[nH]ncc34)nc(N3CCOCC3)n2)CC1` [Compound 1152, (1r,4r)-4-9-{[4-1-(1H-indazol-4-yl)-6-5-(morpholin-4-yl)-1,3,5-triazin-2-yl]oxy}cyclohexan-1-amine] gave a pIC50 greater than 5.30.

`O=C(O)C1(Nc2nc(-c3cccc(O)c3)nc(N3CCOCC3)n2)CCCC1` [Compound 1153, 1-((4-(3-hydroxyphenyl)-6-morpholino-1,3,5-triazin-2-yl)amino)cyclopentanecarboxylic acid] showed a pIC50 greater than 5.30.

On to `NC(=O)C1CN(C(=O)c2cccc(Nc3nc(-c4cccc5[nH]ncc45)nc(N4CCOCC4)n3)c2)C1` [Compound 1154, 1-(3-((4-(1H-indazol-4-yl)-6-morpholino-1,3,5-triazin-2-yl)amino)benzoyl)azetidine-3-carboxamide], for which the pIC50 was greater than 5.30.

On to `CC(C)(CO)Nc1nc(-c2cccc(O)c2)nc(N2CCOCC2)n1` [Compound 1155, 3-6-{4-3-[(1-hydroxy-2-methylpropan-2-yl)amino]-6-5-(morpholin-4-yl)-1,3,5-triazin-2-yl}phenol], for which the negative-log IC50 (pIC50) is greater than 5.30.

As for `COc1ccc(F)c(-c2nc(NCC(=O)O)nc(N3CCOCC3)n2)c1` [Compound 1156, 2-((4-(2-fluoro-5-methoxyphenyl)-6-morpholino-1,3,5-triazin-2-yl)amino)acetic acid], the pIC50 was less than 5.30.

Turning to `O=C(NC1CCNCC1)c1cccc(Nc2nc(-c3cccc4[nH]ncc34)nc(N3CCOCC3)n2)c1` [Compound 1157, 3-((4-(1H-indazol-4-yl)-6-morpholino-1,3,5-triazin-2-yl)amino)-N-(piperidin-4-yl)benzamide], the negative logarithm of the IC50 (pIC50) was greater than 5.30.

With `NC(=O)c1sccc1Nc1nc(-c2cccc3[nH]ncc23)nc(N2CCOCC2)n1` [Compound 1158, 3-((4-(1H-indazol-4-yl)-6-morpholino-1,3,5-triazin-2-yl)amino)thiophene-2-carboxamide], the pIC50 was greater than 5.30.

The compound `Oc1cccc(-c2nc(N3CCOCC3)nc(N3CCOCC3)n2)c1` [Compound 1160, 3-6-[4-1,6-2-bis(morpholin-4-yl)-1,3,5-triazin-2-yl]phenol] gave a negative-log IC50 (pIC50) greater than 5.30.

Compound `O=C(O)CNc1nc(-c2cccc(C(=O)O)c2)nc(N2CCOCC2)n1` [Compound 1161, 3-6-{4-1-[(carboxymethyl)amino]-6-2-(morpholin-4-yl)-1,3,5-triazin-2-yl}benzoic acid] had a pIC50 of less than 5.30.

As for `Nc1nc(-c2ccccc2)nc(N2CCOCC2)n1` [Compound 1162, 4-0-(morpholin-4-yl)-6-4-phenyl-1,3,5-triazin-2-amine], the pIC50 is less than 5.30.

With `O=C1CN(C(=O)c2cccc(Nc3nc(-c4cccc5[nH]ncc45)nc(N4CCOCC4)n3)c2)CCN1` [Compound 1163, 4-(3-((4-(1H-indazol-4-yl)-6-morpholino-1,3,5-triazin-2-yl)amino)benzoyl)piperazin-2-one], the negative logarithm of the IC50 (pIC50) is greater than 5.30.

With `COC1CN(C(=O)c2cccc(Nc3nc(-c4cccc5[nH]ncc45)nc(N4CCOCC4)n3)c2)C1` [Compound 1164, (3-((4-(1H-indazol-4-yl)-6-morpholino-1,3,5-triazin-2-yl)amino)phenyl)(3-methoxyazetidin-1-yl)methanone], the negative-log IC50 (pIC50) was greater than 5.30.

On to `C[C@H](Nc1nc(-c2ccc(N)nc2)nc(N2CCOCC2)n1)C(=O)N(C)C` [Compound 1165, 2-((4-(6-aminopyridin-3-yl)-6-morpholino-1,3,5-triazin-2-yl)amino)-N,N-dimethylpropanamide], for which the pIC50 is greater than 5.30.

`c1ccc(CSc2nc(-c3cccc4[nH]ncc34)nc(N3CCOCC3)n2)cc1` [Compound 1166, 4-(4-(benzylthio)-6-(1H-indazol-4-yl)-1,3,5-triazin-2-yl)morpholine] gave a pIC50 greater than 5.30.

`CN(C)C(=O)CNc1nc(-c2cccc(O)c2)nc(N2CCOCC2)n1` [Compound 1167, 2-((4-(3-hydroxyphenyl)-6-morpholino-1,3,5-triazin-2-yl)amino)-N,N-dimethylacetamide]: the pIC50 was greater than 5.30.
